Activity calls are given as the source filed them.
What was measured:
Protein skinhead-1 = target: T1, Protein skinhead-1 (Caenorhabditis elegans, UniProt P34707); format: functional
T1 sequence (P34707 whole entry): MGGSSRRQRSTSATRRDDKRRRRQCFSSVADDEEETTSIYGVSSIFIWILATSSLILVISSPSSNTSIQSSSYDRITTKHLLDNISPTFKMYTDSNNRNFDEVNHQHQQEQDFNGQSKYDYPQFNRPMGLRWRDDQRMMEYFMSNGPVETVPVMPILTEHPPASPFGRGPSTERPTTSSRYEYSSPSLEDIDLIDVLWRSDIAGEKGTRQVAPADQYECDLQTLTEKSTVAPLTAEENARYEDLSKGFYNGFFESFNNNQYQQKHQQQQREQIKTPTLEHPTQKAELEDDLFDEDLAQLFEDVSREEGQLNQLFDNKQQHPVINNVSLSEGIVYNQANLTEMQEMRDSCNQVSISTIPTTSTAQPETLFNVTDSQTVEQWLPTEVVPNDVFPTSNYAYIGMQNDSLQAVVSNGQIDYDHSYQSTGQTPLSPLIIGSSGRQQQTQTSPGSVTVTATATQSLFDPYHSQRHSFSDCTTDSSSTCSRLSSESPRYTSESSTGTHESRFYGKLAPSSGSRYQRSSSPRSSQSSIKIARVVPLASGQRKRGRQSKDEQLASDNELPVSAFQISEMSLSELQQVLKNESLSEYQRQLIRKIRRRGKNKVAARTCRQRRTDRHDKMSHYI

[1] = Luminescence Cell-Based Dose Retest to Confirm Inhibitors of Cancer Stem Cells. [Related pubchem assays (depositor defined):AID2717, AID2721]; format: functional; settings: Homo sapiens
cells = format: functional
[2] = microbe, parasite or virus in culture; format: functional; settings: Mycobacterium tuberculosis
[3] = C. albicans growth with fluconazole, confirmation, fluorescence, retest (AID 2467); format: functional, cell-based
[4] = NIH-3T3 fibroblast cytotoxicity, dose response, cytotoxicity control, cell-based, fluorescence, Alamar Blue, secondary assay (AID 2327); format: functional;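 also: NIH-3T3 mouse fibroblasts cultured with fluconazole at 8 µg/mL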
Protein RecA = target: T2, Protein RecA (Mycobacterium tuberculosis, UniProt P9WHJ3); assay: Fluorescence Cell-Free Homogeneous Dose Retest to Identify Inhibitors of RecA-Intein Splicing Activity. [Related pubchem assays (depositor defined):AID2097, AID2223, AID489010, AID492950]; format: functional
T2 sequence (P9WHJ3 whole entry): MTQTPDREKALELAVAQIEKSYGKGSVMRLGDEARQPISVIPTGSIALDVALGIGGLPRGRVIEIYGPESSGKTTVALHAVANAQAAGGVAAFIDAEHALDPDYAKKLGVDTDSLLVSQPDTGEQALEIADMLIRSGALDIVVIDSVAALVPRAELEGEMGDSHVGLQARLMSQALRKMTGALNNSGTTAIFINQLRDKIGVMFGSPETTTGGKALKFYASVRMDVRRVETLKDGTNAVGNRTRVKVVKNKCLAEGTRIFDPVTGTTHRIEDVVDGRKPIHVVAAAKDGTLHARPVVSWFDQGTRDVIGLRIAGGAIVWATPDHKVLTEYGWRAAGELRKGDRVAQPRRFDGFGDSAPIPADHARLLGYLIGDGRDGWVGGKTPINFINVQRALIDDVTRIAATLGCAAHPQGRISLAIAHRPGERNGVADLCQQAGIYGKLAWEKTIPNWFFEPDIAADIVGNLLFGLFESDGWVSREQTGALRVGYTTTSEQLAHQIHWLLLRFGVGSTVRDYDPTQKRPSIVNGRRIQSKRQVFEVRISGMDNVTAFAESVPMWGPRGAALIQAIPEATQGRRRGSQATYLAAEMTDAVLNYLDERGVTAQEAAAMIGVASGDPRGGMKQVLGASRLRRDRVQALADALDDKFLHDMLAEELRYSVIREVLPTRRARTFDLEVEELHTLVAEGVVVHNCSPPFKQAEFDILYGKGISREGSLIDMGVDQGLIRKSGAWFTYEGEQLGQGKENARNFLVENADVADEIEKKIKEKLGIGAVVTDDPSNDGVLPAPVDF

[5] = cytotoxicity toward NIH3T3 fibroblasts, dose response, counter-screen, cell-based, ATP luminescence, mouse fibroblasts (AID 2010); format: functional;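 also: cells exposed to compound for about 90 hours before reading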
[6] = target: T3, Replicative DNA helicase DnaB (Mycobacterium tuberculosis, UniProt P9WMR3); assay: DnaB intein splicing inhibitors, dose response, biochemical, cell-free fluorescence (AID 449749); format: functional
T3 sequence (P9WMR3 whole entry): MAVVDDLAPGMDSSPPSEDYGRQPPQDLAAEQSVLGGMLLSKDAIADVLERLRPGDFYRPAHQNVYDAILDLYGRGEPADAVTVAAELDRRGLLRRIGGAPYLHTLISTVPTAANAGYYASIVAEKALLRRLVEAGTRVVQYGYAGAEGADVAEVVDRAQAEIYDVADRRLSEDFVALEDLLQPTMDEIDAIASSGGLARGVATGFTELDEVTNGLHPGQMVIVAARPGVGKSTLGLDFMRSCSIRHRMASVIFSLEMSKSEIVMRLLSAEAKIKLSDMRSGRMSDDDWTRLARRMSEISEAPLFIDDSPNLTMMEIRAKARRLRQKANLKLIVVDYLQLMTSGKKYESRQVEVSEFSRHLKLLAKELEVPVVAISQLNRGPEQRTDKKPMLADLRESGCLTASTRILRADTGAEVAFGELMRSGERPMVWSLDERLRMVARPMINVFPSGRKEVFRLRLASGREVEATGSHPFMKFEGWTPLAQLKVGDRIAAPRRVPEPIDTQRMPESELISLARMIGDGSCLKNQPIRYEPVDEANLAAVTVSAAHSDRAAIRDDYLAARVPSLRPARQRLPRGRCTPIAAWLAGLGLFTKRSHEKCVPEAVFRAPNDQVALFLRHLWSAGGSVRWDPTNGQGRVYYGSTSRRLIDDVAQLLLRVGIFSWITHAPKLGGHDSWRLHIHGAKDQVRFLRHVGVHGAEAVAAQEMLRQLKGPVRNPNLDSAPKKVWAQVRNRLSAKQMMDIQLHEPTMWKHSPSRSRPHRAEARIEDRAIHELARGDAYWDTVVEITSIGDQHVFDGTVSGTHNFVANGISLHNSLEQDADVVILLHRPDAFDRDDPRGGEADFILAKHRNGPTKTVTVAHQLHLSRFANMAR

[7] = inhibitors of intracellular T. cruzi replication, confirmation, NIH3T3 host cells, beta-gal luminescence (AID 2044); format: functional, cell-based;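 also: intracellular parasites grown in NIH/3T3 mouse fibroblasts as host cells; luminescent beta-galactosidase reporter signal from transgenic T. cruzi replicating inside host cells; inhibitors lower the luminescence signal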
INS1 = assay: beta cell apoptosis inhibitors, cytokine rescue, dose response, luminescence, retest (AID 449756); format: functional, cell-based; settings: Rattus norvegicus;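 also: cell death triggered by IL-1 beta plus TNF-alpha plus IFN-gamma mixture; protective hits raise ATP signal compared with cytokine alone wells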
Streptococcus = assay: Group A Streptococcus viability loss, dose response, counter-screen for streptokinase expression inhibitor project, luminescence, BacTiterGlo (AID 1915); format: functional, organism-based;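 also: potency for reduction of bacterial viability or growth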
[8] = tested on: Streptococcus sp. 'group A'; assay: growth inhibition of control SK(-) GAS strain, dose response, counter-screen for streptokinase expression inhibitor project, luminescence, kanamycin, BacTiterGlo, confirmation (AID 1900); format: functional, organism-based
Streptokinase A = target: T4, Streptokinase A (Streptococcus pyogenes serotype M1, UniProt P10520); assay: S. pyogenes streptokinase expression inhibitors, potency, dose response, plasminogen activation absorbance, OD405 (AID 1914); format: functional, Streptococcus pyogenes M1 GAS;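 also: secreted streptokinase activity via plasminogen activation per viability signal from cell pellet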
T4 sequence (P10520 whole entry): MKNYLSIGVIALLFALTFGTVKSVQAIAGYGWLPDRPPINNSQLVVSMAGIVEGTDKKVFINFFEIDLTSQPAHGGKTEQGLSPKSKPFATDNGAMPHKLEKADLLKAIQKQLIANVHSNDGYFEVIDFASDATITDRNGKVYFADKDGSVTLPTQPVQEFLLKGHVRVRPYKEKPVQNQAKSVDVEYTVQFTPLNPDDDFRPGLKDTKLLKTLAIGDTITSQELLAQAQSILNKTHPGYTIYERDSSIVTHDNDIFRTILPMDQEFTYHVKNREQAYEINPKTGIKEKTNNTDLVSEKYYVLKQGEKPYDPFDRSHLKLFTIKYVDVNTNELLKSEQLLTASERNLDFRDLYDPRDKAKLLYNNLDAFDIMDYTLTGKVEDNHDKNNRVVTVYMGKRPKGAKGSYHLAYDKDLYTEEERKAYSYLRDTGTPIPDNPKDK

Cytochrome P450 2D6 = Cytochrome P450 2D6 (Homo sapiens, UniProt P10635);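 also: CYP2D6 member of a cytochrome P450 panel assay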
Sequence of Cytochrome P450 2D6 (P10635 whole entry): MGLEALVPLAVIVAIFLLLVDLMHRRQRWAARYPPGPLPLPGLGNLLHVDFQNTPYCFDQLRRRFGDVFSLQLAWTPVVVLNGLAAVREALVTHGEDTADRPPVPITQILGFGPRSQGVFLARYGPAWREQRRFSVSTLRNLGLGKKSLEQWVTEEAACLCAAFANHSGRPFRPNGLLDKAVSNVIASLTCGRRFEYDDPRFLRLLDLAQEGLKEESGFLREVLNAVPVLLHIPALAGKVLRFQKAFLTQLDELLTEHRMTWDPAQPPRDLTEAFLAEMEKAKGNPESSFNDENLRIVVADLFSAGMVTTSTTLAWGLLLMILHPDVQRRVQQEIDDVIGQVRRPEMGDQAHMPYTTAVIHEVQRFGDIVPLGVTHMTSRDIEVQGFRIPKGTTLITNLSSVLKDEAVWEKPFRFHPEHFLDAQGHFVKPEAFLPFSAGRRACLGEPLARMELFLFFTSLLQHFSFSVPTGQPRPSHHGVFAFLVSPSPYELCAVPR

CCn1c(C)c(C)c2cc(C(=O)N3CCN(c4ccccc4)CC3)ccc21
IC50 (Protein skinhead-1): > 100 µM (inactive)

O=C(C=Cc1ccco1)c1ccc2ccccc2c1
IC50 (Protein skinhead-1): 9.38 µM (active)

CC(=O)Nc1ccc(SCC(=O)c2cc(C)n(-c3ccccc3)c2C)cc1
AC50 [1]: 6.41 µM (active)

COc1ccc(-c2cccc([C@H]3[C@@H]4C=CCC[C@@]4(C)C(=O)N3Cc3ccccc3)c2)cc1
AC50 [1]: 5.36 µM (active)

COC(=O)c1cc(NC(=O)c2cc(-c3ccccc3Cl)oc2C(F)(F)F)ccc1N1CCOCC1
AC50 [1]: 4.57 µM (active)

O=C(OCn1nnc2ccccc2c1=O)c1ccc(Br)o1
IC50 (cells): 18.6 µM (active)

COC(=O)c1c2c(nc3ccccc13)CCC2
IC50 (Protein skinhead-1): > 100 µM (inactive)

Cc1ccc(-c2nnn(CC(=O)NCC3COCCO3)n2)o1 (stereo not given)
IC50 (Protein skinhead-1): > 100 µM (inactive)

O=C(CCCCCNc1nc(S)nc2ccccc12)N1CCN(c2ccccn2)CC1
CC50 [2]: > 40 µM (active)

O=C(/C=C/c1ccccc1)Nn1c(-c2cccs2)nc2ccccc2c1=O
EC50 [3]: 0.102 µM (active)
EC50 [4]: > 160 µM (inactive)

Cn1c(-c2ccccc2)c(C(=O)CCl)c2ccccc21
EC50 (Protein RecA): 3.04 µM (active)
EC50 [5]: 2.44 µM (active)
AC50 [6]: 6.94 µM (active)
EC50 [7]: 0.998 µM (active)

COc1ccc(C(=O)c2ccc(OC)cc2OC)cc1
AC50 [1]: 13.6 µM (active)

C=CC[C@@H](CC(=O)N(CCO)Cc1ccccc1)C(=O)N[C@H](COC(=O)[C@@H](CC=C)CC(=O)OC(C)(C)C)c1ccccc1
AC50 (INS1): > 260 µM (inactive)

O=[N+]([O-])c1ccc(Nc2nccc(Cl)n2)cc1
IC50 (Protein skinhead-1): > 100 µM (inactive)

c1nc2n(n1)C1=C(CCCC1)C1(CCCCC1)N2
IC50 (cells): 10.1 µM (active)

CC1CCN(C(=S)NC(=O)c2cccs2)CC1
CC50 [2]: > 40 µM (active)

CC(C)c1ccc(NC(=O)C(c2ccccc2)N(C)C(=O)CCc2c[nH]c3ccccc23)cc1 (stereo not given)
AC50 [1]: 4 µM (active)

CCCOc1ccc(OCCSc2ncccn2)cc1
IC50 (Protein skinhead-1): 82.8 µM (inactive)

Cc1cc(C(=O)c2ccc(Cl)cc2)c(NC(=O)CCl)s1
EC50 (Protein RecA): 0.481 µM (active)
AC50 [6]: 24.4 µM (active)

Cc1cccc(N2CCN(c3nc(C)cc(C)c3C#N)CC2C)c1 (stereo not given)
EC50 [3]: > 38 µM (not active)
EC50 [5]: > 60 µM (not active)
EC50 [7]: 3.63 µM (active)
EC50 [4]: 41.3 µM (active)

COc1ccc(NC(=O)c2cc3ccccc3o2)cc1
IC50 (cells): > 50 µM (active)

CC(=O)c1c(C)[nH]c(C(=O)CN2CCN(S(=O)(=O)c3ccccc3)CC2)c1C
AC50 (INS1): > 260 µM (inactive)

CCOc1cc(/C=C2/SC(=S)N(Cc3ccccc3)C2=O)ccc1O
EC50 (Protein RecA): 3.96 µM (active)
AC50 [1]: 1.42 µM (active)
AC50 [6]: 38.9 µM (active)

Cc1ccc(OCCSc2nc(NC(C)C)nc(NC(C)C)n2)cc1
AC50 [1]: 1.11 µM (active)
EC50 (Streptococcus): 34.2 µM (active)
EC50 [8]: 6.42 µM (active)
EC50 (Streptokinase A): 13.9 µM (active)

Cc1cccc(C)c1OCC(=O)Nc1cccc(-c2nnc(-c3ccccc3)o2)c1
CC50 [2]: 34.9 µM (active)

CC1=NN(c2ccccc2)C(=O)/C1=C\c1cn(C)c2ccccc12
EC50 (Protein RecA): 6.5 µM (active)
AC50 [6]: 17.7 µM (active)

C[C@@H]1O[C@@H](O[C@H]2C[C@@H](O)[C@]3(CO)[C@H]4[C@H](O)C[C@]5(C)[C@@H](C6=CC(=O)OC6)CC[C@]5(O)[C@@H]4CC[C@]3(O)C2)[C@H](O)[C@H](O)[C@H]1O
AC50 [1]: < 0.16 µM (active)

O=C(NC(=S)N(Cc1ccccc1)Cc1ccccc1)c1ccccc1F
AC50 (Cytochrome P450 2D6): 0.2 µM (inconclusive)
EC50 (Streptococcus): 9.16 µM (active)
EC50 [8]: 1.08 µM (active)
EC50 (Streptokinase A): > 150 µM (not active)

C=CCn1c(NC(=O)c2ccc(Br)o2)c(C(=O)OCC)sc1=S
EC50 [3]: > 38 µM (not active)
EC50 [4]: > 160 µM (inconclusive)

CN(CC(=O)Nc1cccc(F)c1)C(=O)CC1CC2CCC1C2 (stereo not given)
IC50 (Protein skinhead-1): > 100 µM (inactive)

O=C(NCc1ccccc1)C1=C[C@@H](c2csc3ccccc23)C[C@@H](OCc2ccc(CO)cc2)O1
AC50 (INS1): 2.88 µM (active)

Cc1ccn2c(NC3CCCCC3)c(-c3cccc(SC4CCCCC4)c3)nc2c1
AC50 [1]: 2.65 µM (active)

COC(=O)COc1ccc(-c2ccccc2)cc1C=O
IC50 (cells): 12.1 µM (active)

CC(C)Nc1nc(NC(C)C)nc(N(C)N)n1
EC50 (Streptococcus): > 150 µM (not active)
EC50 [8]: 32.9 µM (active)
EC50 (Streptokinase A): > 150 µM (not active)

NCCCn1c(C(=O)c2ccc(Cl)cc2)c2ccc([N+](=O)[O-])cc2[n+]1[O-]
CC50 [2]: 35.4 µM (active)

Reference: ChEMBL document CHEMBL1201862, “PubChem BioAssay data set” (2004)
